{"source": "patent US10479770B2", "about": "“Phosphatidylinositol 3-kinase inhibitors” (Gilead Sciences, Inc., priority 2016, dated 2019)", "data": [{"biological_target": "T1, PI3Kβ (Homo sapiens, UniProt P42338)", "T1 construct": "made in house", "T1 sequence (P42338 whole entry, canonical isoform)": "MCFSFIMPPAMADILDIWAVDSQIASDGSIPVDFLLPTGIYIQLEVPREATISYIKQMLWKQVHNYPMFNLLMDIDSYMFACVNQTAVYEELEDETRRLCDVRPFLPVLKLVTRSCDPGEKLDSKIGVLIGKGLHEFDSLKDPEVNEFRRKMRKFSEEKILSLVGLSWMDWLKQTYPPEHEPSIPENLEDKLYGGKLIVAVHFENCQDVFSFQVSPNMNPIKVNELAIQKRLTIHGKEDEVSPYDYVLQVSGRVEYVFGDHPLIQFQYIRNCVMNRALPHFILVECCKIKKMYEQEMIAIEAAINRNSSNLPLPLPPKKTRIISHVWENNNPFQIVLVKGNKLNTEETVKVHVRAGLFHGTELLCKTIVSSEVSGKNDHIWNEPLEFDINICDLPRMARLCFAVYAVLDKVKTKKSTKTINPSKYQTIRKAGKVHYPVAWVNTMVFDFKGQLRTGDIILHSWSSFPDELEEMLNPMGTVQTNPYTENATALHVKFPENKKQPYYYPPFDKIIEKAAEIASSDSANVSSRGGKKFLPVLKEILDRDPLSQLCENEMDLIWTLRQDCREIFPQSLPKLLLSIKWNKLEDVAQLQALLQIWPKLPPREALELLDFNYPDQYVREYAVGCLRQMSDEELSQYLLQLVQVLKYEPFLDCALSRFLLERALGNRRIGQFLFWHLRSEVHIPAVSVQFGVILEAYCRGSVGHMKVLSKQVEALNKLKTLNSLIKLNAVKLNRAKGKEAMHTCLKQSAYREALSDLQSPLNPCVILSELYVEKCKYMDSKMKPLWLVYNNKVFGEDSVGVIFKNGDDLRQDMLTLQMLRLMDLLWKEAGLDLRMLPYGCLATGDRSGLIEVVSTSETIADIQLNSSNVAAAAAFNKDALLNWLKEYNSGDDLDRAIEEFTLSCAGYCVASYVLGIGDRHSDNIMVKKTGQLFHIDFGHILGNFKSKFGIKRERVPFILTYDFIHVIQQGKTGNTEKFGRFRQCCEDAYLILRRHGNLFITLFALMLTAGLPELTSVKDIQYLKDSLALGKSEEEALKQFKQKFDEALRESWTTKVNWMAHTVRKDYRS", "T1 sequence (P27986 whole entry partner, canonical isoform)": "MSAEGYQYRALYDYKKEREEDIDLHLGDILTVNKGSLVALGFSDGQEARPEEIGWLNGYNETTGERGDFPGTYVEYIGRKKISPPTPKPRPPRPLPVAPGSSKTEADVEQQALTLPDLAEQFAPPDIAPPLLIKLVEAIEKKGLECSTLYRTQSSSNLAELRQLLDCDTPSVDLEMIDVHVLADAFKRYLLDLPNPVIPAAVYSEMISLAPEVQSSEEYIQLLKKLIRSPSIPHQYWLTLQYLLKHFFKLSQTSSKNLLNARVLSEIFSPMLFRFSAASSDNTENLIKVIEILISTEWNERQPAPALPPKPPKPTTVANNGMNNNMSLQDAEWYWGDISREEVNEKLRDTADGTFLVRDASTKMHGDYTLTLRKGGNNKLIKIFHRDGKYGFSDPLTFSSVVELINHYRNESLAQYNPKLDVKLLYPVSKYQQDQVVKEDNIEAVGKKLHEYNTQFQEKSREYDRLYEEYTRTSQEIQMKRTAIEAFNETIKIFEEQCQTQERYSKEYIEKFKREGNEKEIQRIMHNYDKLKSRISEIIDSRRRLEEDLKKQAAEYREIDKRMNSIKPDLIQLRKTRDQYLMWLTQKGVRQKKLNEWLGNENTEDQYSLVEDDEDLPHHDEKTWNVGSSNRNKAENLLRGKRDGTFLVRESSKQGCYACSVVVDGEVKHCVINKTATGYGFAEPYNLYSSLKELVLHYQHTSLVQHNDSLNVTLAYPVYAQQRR", "assay": "TR-FRET enzymatic activity assay against PI3K isoforms", "format": "biochemical", "conditions": "2×Km ATP, 2 μM PIP2, 30 minutes at 25° C., recombinant heterodimeric PI3Kβ 25-50 pM, read-out: IC50-PIP-Beta", "protocol": "The compounds of formula (I) were characterized for their enzymatic activity against the PI3K isoforms. The activities were measured using a time-resolved fluorescence resonance energy transfer (TR-FRET) assay. TR-FRET monitored the formation of 3,4,5-inositol triphosphate molecule that competed with fluorescently labeled PIPS for binding to the GRP-1 pleckstrin homology domain protein.\nClass I PI3K isoforms were expressed and purified as heterodimeric recombinant proteins. All assay reagents and buffers for the TR-FRET assay were purchased from Millipore. […] The compounds were added to the assay solution and incubated for 30 minutes at 25° C. The reactions were terminated with a final concentration of 10 mM EDTA, 10 nM labeled-PIPS, and 35 nM Europium labeled GRP-1 detector protein before reading TR-FRET on an Envision plate reader (Ex: 340 nm; Em: 615/665 nm; 100 μs delay and 500 μs read window).\nThe results were normalized based on positive (1 μM wortmanin) and negative (DMSO) controls, and the IC50 values for PI3K α, β, δ, and γ were calculated from the fit of the dose-response curves to a four-parameter equation. These assays generally produced results within 3-fold of the reported mean.", "units": {"IC50": "nM"}, "values": [{"compound": "CCc1nc2c(-c3nnc[nH]3)cc(N3CCOCC3)cc2n1-c1ccc2ccccc2n1", "note": "[Compound 5-9, 4-(2-ethyl-1-(quinolin-2-yl)-4-(4H-1,2,4-triazol-3-yl)-1H-benzo[d]imidazol-6-yl)morpholine]", "IC50": 220}, {"compound": "Cc1nc2c(-c3nnc[nH]3)cc(N3CCOCC3)cc2n1-c1ccc(F)c2ccccc12", "note": "[Compound 5-1, 4-(1-(4-fluoronaphthalen-1-yl)-2-methyl-4-(4H-1,2,4-triazol-3-yl)-1H-benzo[d]imidazol-6-yl)morpholine]", "IC50": 9}, {"compound": "Fc1cccc2c(-n3cnc4c(-c5nnc[nH]5)cc(N5CCOCC5)cc43)cccc12", "note": "[Compound 5-12, 4-[3-(5-fluoronaphthalen-1-yl)-7-(4H-1,2,4-triazol-3-yl)benzimidazol-5-yl]morpholine]", "IC50": 2}, {"compound": "Cc1nc2c(-c3nnc[nH]3)cc(N3CCOCC3)cc2n1-c1cccc2c(F)cccc12", "note": "[Compound 5-13, 4-[3-(5-fluoronaphthalen-1-yl)-2-methyl-7-(4H-1,2,4-triazol-3-yl)benzimidazol-5-yl]morpholine]", "IC50": 5}, {"compound": "Cc1nc2c(C(N)=O)cc(N3CCOCC3)cc2n1-c1cnc2c(Cl)cccc2c1", "note": "[Compound 4-2, 1-(8-chloroquinolin-3-yl)-2-methyl-6-morpholino-1H-benzo[d]imidazole-4-carboxamide]", "IC50": 2300}, {"compound": "Cc1nc2c(-c3nnc[nH]3)cc(N3CCOCC3)cc2n1-c1ccc2ccccc2c1", "note": "[Compound 5-10, 4-(2-methyl-1-(naphthalen-2-yl)-4-(4H-1,2,4-triazol-3-yl)-1H-benzo[d]imidazol-6-yl)morpholine]", "IC50": 38}, {"compound": "Cc1nnc(-c2cc(N3CCOCC3)cc3c2nc(C)n3-c2ccc(F)c3ccccc23)[nH]1", "note": "[Compound 5-2, 4-[3-(4-fluoronaphthalen-1-yl)-2-methyl-7-(5-methyl-4H-1,2,4-triazol-3-yl)benzimidazol-5-yl]morpholine]", "IC50": 43}, {"compound": "CCOC(=O)c1nc2c(C(=O)OC)cc(N3CCOCC3)cc2n1-c1cccc2ccccc12", "note": "[Compound 2-3, 2-O-ethyl 4-O-methyl 6-morpholin-4-yl-1-naphthalen-1-ylbenzimidazole-2,4-dicarboxylate]", "IC50": 700}, {"compound": "Cc1nc2c(-c3nnc[nH]3)cc(N3CCOCC3)cc2n1-c1cc2ccccc2cn1", "note": "[Compound 5-14, 4-(1-(isoquinolin-3-yl)-2-methyl-4-(4H-1,2,4-triazol-3-yl)-1H-benzo[d]imidazol-6-yl)morpholine]", "IC50": 580}, {"compound": "Cc1nc2c(-c3nnc[nH]3)cc(N3CCOCC3)cc2n1-c1cnc2cccc(Cl)c2c1", "note": "[Compound 5-8, 4-(1-(5-chloroquinolin-3-yl)-2-methyl-4-(4H-1,2,4-triazol-3-yl)-1H-benzo[d]imidazol-6-yl)morpholine]", "IC50": 28}, {"compound": "O=C(O)c1cc(N2CCOCC2)cc2c1ncn2-c1cccc2ccccc12", "note": "[Compound 3-1, 6-morpholin-4-yl-1-naphthalen-1-ylbenzimidazole-4-carboxylic acid]", "IC50": "> 10000"}, {"compound": "Cc1nc2c(-c3nnc[nH]3)cc(N3CCOCC3)cc2n1-c1cnc2ccccc2c1", "note": "[Compound 5-6, 4-(2-methyl-1-(quinolin-3-yl)-4-(4H-1,2,4-triazol-3-yl)-1H-benzo[d]imidazol-6-yl)morpholine]", "IC50": 720}, {"compound": "Cc1nc2c(C(N)=O)cc(N3CCOCC3)cc2n1-c1ccc(F)c2ccccc12", "note": "[Compound 4-1, 1-(4-fluoronaphthalen-1-yl)-2-methyl-6-morpholino-1H-benzo[d]imidazole-4-carboxamide]", "IC50": 87}, {"compound": "CCCc1nc2c(-c3nnc[nH]3)cc(N3CCOCC3)cc2n1-c1cccc2c(F)cccc12", "note": "(single isomer, unassigned) [Compound 6-2, 4-[3-(5-fluoronaphthalen-1-yl)-2-propyl-7-(4H-1,2,4-triazol-3-yl)benzimidazol-5-yl]morpholine]", "IC50": 3}, {"compound": "CCCc1nc2c(-c3nnc[nH]3)cc(N3CCOCC3)cc2n1-c1cccc2c(F)cccc12", "note": "(single isomer, unassigned) [Compound 6-1, 4-[3-(5-fluoronaphthalen-1-yl)-2-propyl-7-(4H-1,2,4-triazol-3-yl)benzimidazol-5-yl]morpholine]", "IC50": 42}, {"compound": "Cc1nc2c(C(N)=O)cc(N3CCOCC3)cc2n1-c1cccc2c(F)cccc12", "note": "[Compound 4-4, 1-(5-fluoronaphthalen-1-yl)-2-methyl-6-morpholin-4-ylbenzimidazole-4-carboxamide]", "IC50": 13}, {"compound": "Cc1nc2c(-c3nnc[nH]3)cc(N3CCOCC3)cc2n1-c1cnc2cc(Cl)ccc2c1", "note": "[Compound 5-5, 4-(1-(7-chloroquinolin-3-yl)-2-methyl-4-(4H-1,2,4-triazol-3-yl)-1H-benzo[d]imidazol-6-yl)morpholine]", "IC50": 1200}, {"compound": "CCc1nc2c(-c3nnc[nH]3)cc(N3CCOCC3)cc2n1-c1cnc2ccccc2c1", "note": "[Compound 5-4, 4-(2-ethyl-1-(quinolin-3-yl)-4-(4H-1,2,4-triazol-3-yl)-lH-benzo[d]imidazol-6-yl)morpholine]", "IC50": 1200}, {"compound": "Cc1nc2c(-c3nnc[nH]3)cc(N3CCOCC3)cc2n1-c1cnc2c(Cl)cccc2c1", "note": "[Compound 5-7, 4-(1-(8-chloroquinolin-3-yl)-2-methyl-4-(4H-1,2,4-triazol-3-yl)-H-benzo[d]imidazol-6-yl)morpholine]", "IC50": 190}, {"compound": "COC(=O)c1cc(N2CCOCC2)cc2c1nc(C)n2-c1cccc2ccccc12", "note": "[Compound 2-1, methyl 1-(naphthalen-1-yl)-2-methyl-6-morpholino-1H-benzo[d]imidazole-4-carboxylate]", "IC50": 140}, {"compound": "COC(=O)c1cc(N2CCOCC2)cc2c1ncn2-c1cccc2ccccc12", "note": "[Compound 2-2, methyl 6-morpholin-4-yl-1-naphthalen-1-ylbenzimidazole-4-carboxylate]", "IC50": 230}, {"compound": "Cc1nc2c(C(=O)O)cc(N3CCOCC3)cc2n1-c1cccc2ccccc12", "note": "[Compound 3-2, 2-methyl-6-morpholin-4-yl-l-naphthalen-1-ylbenzimidazole-4-carboxylic acid]", "IC50": 1800}, {"compound": "Cc1nc2c(-c3nnc[nH]3)cc(N3CCOCC3)cc2n1-c1cnc2ccc(Cl)cc2c1", "note": "[Compound 5-3, 4-(1-(6-chloroquinolin-3-yl)-2-methyl-4-(4H-1,2,4-triazol-3-yl)-1H-benzo[d]imidazol-6-yl)morpholine]", "IC50": 4200}, {"compound": "Cc1nnc(-c2cc(N3CCOCC3)cc3c2nc(C)n3-c2cc3ccccc3cn2)[nH]1", "note": "[Compound 5-15, 4-(1-(isoquinolin-3-yl)-2-methyl-4-(5-methyl-4H-1,2,4-triazol-3-yl)-1H-benzo[d]imidazol-6-yl)morpholine]", "IC50": 3400}, {"compound": "CCCc1nc2c(-c3nnc[nH]3)cc(N3CCOCC3)cc2n1-c1cccc2c(F)cccc12", "note": "[Compound 5-11, 4-[3-(5-fluoronaphthalen-1-yl)-2-propyl-7-(4H-1,2,4-triazol-3-yl)benzimidazol-5-yl]morpholine]", "IC50": 6}, {"compound": "Cc1nc2c(C(N)=O)cc(N3CCOCC3)cc2n1-c1cnc2cccc(Cl)c2c1", "note": "[Compound 4-3, 1-(5-chloroquinolin-3-yl)-2-methyl-6-morpholino-lH-benzo[d]imidazole-4-carboxamide]", "IC50": 390}]}]}
